Results from PubChem BioAssay AID248 (DTP/NCI, 2004).
Several values for one entry are separate records, joined by “and”; a condition that tells them apart may be missing. Equal values may be shown once. Inconclusive results and toxic doses are left out. Rule as the data show it: active = T/C of 150% or more; inactive = T/C below 125%.

Tested on: L1210 leukemia ip in BDF1 mice, survival T/C
Experiment: NCI In Vivo Anticancer Drug Screen. Data for tumor model L1210 Leukemia (intraperitoneal) in B6D2F1 (BDF1) mice
Details: endpoint: mean survival time, higher = longer survival
In short: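 Tumor cells were implanted, animals were treated, and survival was followed. The result divides the treated measurement by the vehicle-control measurement.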

[1] = dose: 100.0 mg/kg/injection, schedule: Q04DX003 (ip), vehicle: Klucel (hydroxypropylcellulose) (HPC)
[2] = dose: 200.0 mg/kg/injection, schedule: Q04DX003 (ip), vehicle: Klucel (hydroxypropylcellulose) (HPC)
[3] = dose: 400.0 mg/kg/injection, schedule: Q04DX003 (ip), vehicle: Klucel (hydroxypropylcellulose) (HPC)
[4] = dose: 25.0 mg/kg/injection, schedule: Q04DX003 (ip), vehicle: saline
[5] = dose: 50.0 mg/kg/injection, schedule: Q04DX003 (ip), vehicle: saline
[6] = dose: 100.0 mg/kg/injection, schedule: Q01DX009 (ip), vehicle: saline
[7] = dose: 100.0 mg/kg/injection, schedule: Q04DX003 (ip), vehicle: saline
[8] = dose: 100.0 mg/kg/injection, schedule: Q04DX003 (ip), vehicle: saline with Tween-80
[9] = dose: 200.0 mg/kg/injection, schedule: Q04DX003 (ip), vehicle: saline with Tween-80
[10] = dose: 400.0 mg/kg/injection, schedule: Q04DX003 (ip), vehicle: saline with Tween-80
[11] = dose: 100.0 mg/kg/injection, schedule: Q01DX009 (ip), vehicle: Klucel (hydroxypropylcellulose) (HPC)
[12] = dose: 200.0 mg/kg/injection, schedule: Q01DX009 (ip), vehicle: Klucel (hydroxypropylcellulose) (HPC)
[13] = dose: 200.0 mg/kg/injection, schedule: Q01DX009 (ip), vehicle: saline
[14] = dose: 75.0 mg/kg/injection, schedule: Q01DX001 (ip), vehicle: saline
[15] = dose: 50.0 mg/kg/injection, schedule: Q01DX009 (ip), vehicle: saline

Measured: T/C

CC1(C)C2CC3C(=CCC4C(=O)C=CC(=O)C43)C1C2 (stereo not given)
inactive: [1] 95 % of control | [2] 93 % of control | [3] 95 % of control

CC(C)=CCC/C(C)=C/CN
inactive: [4] 101 % of control | [5] 92 % of control | [6] 95 % of control | [7] 97 % of control

O=C(O)c1ccc(Br)cc1O
inactive: dose: 100.0 mg/kg/injection, schedule: Q01DX001 (ip), vehicle: carboxymethylcellulose (CMC) 98 % of control | dose: 200.0 mg/kg/injection, schedule: Q01DX001 (ip), vehicle: carboxymethylcellulose (CMC) 104 % of control | dose: 400.0 mg/kg/injection, schedule: Q01DX001 (ip), vehicle: carboxymethylcellulose (CMC) 95 % of control

O=C1OC(=O)c2c(Br)cccc21
inactive: dose: 5.0 mg/kg/injection, schedule: Q04DX003 (ip), vehicle: Klucel (hydroxypropylcellulose) (HPC) 102 % of control | dose: 10.0 mg/kg/injection, schedule: Q04DX003 (ip), vehicle: Klucel (hydroxypropylcellulose) (HPC) 100 % of control | dose: 20.0 mg/kg/injection, schedule: Q04DX003 (ip), vehicle: Klucel (hydroxypropylcellulose) (HPC) 114 % of control

C=CC1CC1(C(=O)O)C(=O)O (stereo not given)
inactive: dose: 100.0 mg/kg/injection, schedule: Q01DX009 (ip), vehicle: saline with Tween-80 93 % of control | [8] 98 % of control | dose: 200.0 mg/kg/injection, schedule: Q01DX009 (ip), vehicle: saline with Tween-80 96 % of control | [9] 98 % of control | dose: 400.0 mg/kg/injection, schedule: Q01DX009 (ip), vehicle: saline with Tween-80 90 % of control | [10] 93 % of control

COc1ccc(OC)c(NC(=O)Nc2ccc(C(=O)O)cc2)c1
inactive: [11] 109 % of control | [12] 96 % of control | dose: 400.0 mg/kg/injection, schedule: Q01DX009 (ip), vehicle: Klucel (hydroxypropylcellulose) (HPC) 96 % of control

CS/C(N)=N\NC(N)=S
inactive: dose: 100.0 mg/kg/injection, schedule: Q01DX001 (ip), vehicle: Klucel (hydroxypropylcellulose) (HPC) 96 % of control | dose: 200.0 mg/kg/injection, schedule: Q01DX001 (ip), vehicle: Klucel (hydroxypropylcellulose) (HPC) 88 % of control

COc1ccc(F)cc1CC(N)=O
inactive: dose: 100.0 mg/kg/injection, schedule: Q04DX002 (ip), vehicle: Klucel (hydroxypropylcellulose) (HPC) 101 % of control | dose: 200.0 mg/kg/injection, schedule: Q04DX002 (ip), vehicle: Klucel (hydroxypropylcellulose) (HPC) 97 % of control | dose: 400.0 mg/kg/injection, schedule: Q04DX002 (ip), vehicle: Klucel (hydroxypropylcellulose) (HPC) 104 % of control

c1ccc([P+](CC[P+](c2ccccc2)(c2ccccc2)c2ccccc2)(c2ccccc2)c2ccccc2)cc1
inactive: dose: 2.5 mg/kg/injection, schedule: Q04DX003 (ip), vehicle: saline 96 % of control | dose: 5.0 mg/kg/injection, schedule: Q01DX009 (ip), vehicle: saline 96 % of control | dose: 5.0 mg/kg/injection, schedule: Q04DX003 (ip), vehicle: saline 98 % of control | dose: 10.0 mg/kg/injection, schedule: Q01DX009 (ip), vehicle: saline 96 % of control | dose: 10.0 mg/kg/injection, schedule: Q04DX003 (ip), vehicle: saline 95 % of control and 98 % of control | dose: 20.0 mg/kg/injection, schedule: Q01DX009 (ip), vehicle: saline 104 % of control

CC[P+](C)(CC)c1ccccc1
inactive: dose: 15.0 mg/kg/injection, schedule: Q01DX001 (ip), vehicle: saline 98 % of control | dose: 30.0 mg/kg/injection, schedule: Q01DX001 (ip), vehicle: saline 101 % of control

NNC(=O)CCO
inactive: dose: 100.0 mg/kg/injection, schedule: Q01DX001 (ip), vehicle: saline 103 % of control | [6] 89 % of control | dose: 200.0 mg/kg/injection, schedule: Q01DX001 (ip), vehicle: saline 105 % of control | [13] 100 % of control | dose: 400.0 mg/kg/injection, schedule: Q01DX001 (ip), vehicle: saline 94 % of control | dose: 400.0 mg/kg/injection, schedule: Q01DX009 (ip), vehicle: saline 96 % of control

C1CNCOC1
inactive: [7] 105 % of control | dose: 200.0 mg/kg/injection, schedule: Q04DX003 (ip), vehicle: saline 111 % of control

NN(CC1=COc2ccccc2O1)Cc1ccccc1
inactive: dose: 25.0 mg/kg/injection, schedule: Q01DX009 (ip), vehicle: Klucel (hydroxypropylcellulose) (HPC) 100 % of control | dose: 25.0 mg/kg/injection, schedule: Q04DX003 (ip), vehicle: Klucel (hydroxypropylcellulose) (HPC) 92 % of control | dose: 50.0 mg/kg/injection, schedule: Q01DX009 (ip), vehicle: Klucel (hydroxypropylcellulose) (HPC) 94 % of control | dose: 50.0 mg/kg/injection, schedule: Q04DX003 (ip), vehicle: Klucel (hydroxypropylcellulose) (HPC) 92 % of control | [11] 96 % of control | [1] 92 % of control | [12] 95 % of control | [2] 95 % of control | [3] 97 % of control

O=P(c1ccccc1)(N1CCOCC1)N1CCOCC1
inactive: dose: 75.0 mg/kg/injection, schedule: Q04DX003 (ip), vehicle: saline 94 % of control | dose: 150.0 mg/kg/injection, schedule: Q04DX003 (ip), vehicle: saline 104 % of control | dose: 300.0 mg/kg/injection, schedule: Q04DX003 (ip), vehicle: saline 110 % of control

Clc1ccc(N2CCNCC2)cc1
inactive: [14] 101 % of control

CC[N+]1(C2CCCCC2)CCCCC1
inactive: dose: 5.0 mg/kg/injection, schedule: Q01DX001 (ip), vehicle: saline 101 % of control | dose: 10.0 mg/kg/injection, schedule: Q01DX001 (ip), vehicle: saline 103 % of control | dose: 20.0 mg/kg/injection, schedule: Q01DX001 (ip), vehicle: saline 100 % of control | dose: 40.0 mg/kg/injection, schedule: Q01DX001 (ip), vehicle: saline 91 % of control | [14] 96 % of control

CCCCC(N)C(=O)O (stereo not given)
inactive: [1] 98 % of control | [2] 95 % of control | [3] 98 % of control

Nc1cc(Cl)c(Cl)cc1Cl
inactive: [8] 97 % of control | [9] 101 % of control | [10] 100 % of control

ClCCN1CCOCC1
inactive: dose: 25.0 mg/kg/injection, schedule: Q01DX009 (ip), vehicle: saline 97 % of control | [4] 93 % of control and 106 % of control | [15] 100 % of control | [5] 93 % of control and 111 % of control | [7] 98 % of control and 104 % of control and 108 % of control

C/C(=N/S(=O)(=O)c1ccc(C)cc1)OCCN(C)C
inactive: dose: 3.0 mg/kg/injection, schedule: Q01DX009 (ip), vehicle: saline with Tween-80 100 % of control | dose: 3.0 mg/kg/injection, schedule: Q04DX003 (ip), vehicle: saline with Tween-80 98 % of control | dose: 6.0 mg/kg/injection, schedule: Q01DX009 (ip), vehicle: saline with Tween-80 95 % of control | dose: 6.0 mg/kg/injection, schedule: Q04DX003 (ip), vehicle: saline with Tween-80 101 % of control | dose: 12.5 mg/kg/injection, schedule: Q04DX003 (ip), vehicle: saline with Tween-80 90 % of control

CC(=O)Oc1cc(-c2ccccc2)c2oc(C)nc2c1-c1ccccc1
inactive: [1] 101 % of control | [2] 103 % of control | [3] 93 % of control

CP1(=O)CC2OC2C1 (stereo not given)
inactive: [15] 96 % of control | [6] 89 % of control | [13] 93 % of control

OC1c2ccccc2C(c2ccccc2)C1c1ccccc1 (stereo not given)
inactive: [9] 87 % of control | [10] 90 % of control
